Laboratory results published in paper PMC8316815, “Overexpression of ABCG2 Confers Resistance to MLN7243, a Ubiquitin-Activating Enzyme (UAE) Inhibitor” (Frontiers in Cell and Developmental Biology, 2021).

Tests used:
ABCG2 [1] = target: T1, ABCG2 (Homo sapiens, UniProt Q9UNQ0); assay: ABCG2 ATPase stimulation in membrane vesicles; supported by HPLC accumulation in HEK293/ABCG2-WT cells; assay type: biochemical; set-up: ABCG2 membrane vesicles (PREDEASY ATPase Kit)
T1 sequence (Q9UNQ0 1-655): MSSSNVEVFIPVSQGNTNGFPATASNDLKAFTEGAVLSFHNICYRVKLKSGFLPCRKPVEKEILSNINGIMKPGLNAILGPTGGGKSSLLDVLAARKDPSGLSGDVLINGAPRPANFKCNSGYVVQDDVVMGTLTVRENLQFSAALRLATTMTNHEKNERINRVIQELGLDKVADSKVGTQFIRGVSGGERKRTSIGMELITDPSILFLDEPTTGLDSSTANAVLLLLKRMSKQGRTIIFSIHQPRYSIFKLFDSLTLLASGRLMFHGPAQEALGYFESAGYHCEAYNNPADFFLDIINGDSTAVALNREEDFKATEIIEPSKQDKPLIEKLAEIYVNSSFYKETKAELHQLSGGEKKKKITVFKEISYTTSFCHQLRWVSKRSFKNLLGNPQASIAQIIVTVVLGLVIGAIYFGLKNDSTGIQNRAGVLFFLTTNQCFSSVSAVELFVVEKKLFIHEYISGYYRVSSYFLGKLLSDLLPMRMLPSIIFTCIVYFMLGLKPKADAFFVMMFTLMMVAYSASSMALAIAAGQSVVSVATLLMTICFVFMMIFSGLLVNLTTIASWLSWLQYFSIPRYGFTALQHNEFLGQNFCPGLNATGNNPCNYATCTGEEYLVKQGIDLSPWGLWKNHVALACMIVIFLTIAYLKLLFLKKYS

ABCG2 [2] = target: T1, ABCG2; assay: [3H]-mitoxantrone accumulation in NCI-H460 and NCI-H460/TPT10 cells, restored by Ko143; assay type: cell-based; set-up: ABCG2-overexpressing NCI-H460/TPT10 cells

EC50 (ABCG2 [1]) | Structure (SMILES) | [3H]-mitoxantrone accumulation in NCI-H460 and NCI-H460/TPT10 cells, restored by (ABCG2 [2])
1780 nM | NS(=O)(=O)OC[C@H]1C[C@@H](Nc2ccnc3cc(-c4cccc(SC(F)(F)F)c4)nn23)[C@H](O)[C@@H]1O [MLN7243] | –
– | O=C1c2c(O)ccc(O)c2C(=O)c2c(NCCNCCO)ccc(NCCNCCO)c21 [mitoxantrone] | suggesting a large portion of mitoxantrone was pumped out from the cells by ABCG2 transporter
